Experimental data reported in patent US20250090541A1, “Methods for Treating Neurodegenerative Disorders” (Praetego Inc, priority 2022, published 2025).

Key:
Assay type in all cases: in vivo
3×Tg mice [1] = experiment: Motor nerve conduction velocity (NCV), 3×Tg mice; conditions: male 3×Tg mice, 20 weeks time point
Procedure: (§1) Female and male 3×Tg mice (MMRRC #034830) were treated daily for 20 weeks with PTG-670 trihydrochloride at 1 and 5 mg/kg in drinking water starting at 19 weeks of age (˜5 months old) (just before cognitive deficits onset).
(§2) Tactile and thermal responses were assessed at 5 and 11 weeks. Motor nerve conduction velocity (NCV) was measured at 8, 12 and 20 weeks after treatment. Learning and memory were assessed using the Barnes maze test and the object recognition test at 6, 12, and 18 weeks of treatment. Corneal nerves were imaged by corneal confocal microscopy (CCM) at week 5, 11 and 17. Data represent male and female results combined, unless specified, mean±sem.
Male 3×Tg mice develop significant (p<0.05) nerve conduction velocity slowing by 9 months of age (20 weeks time point) (data not shown). The slowing of NCV was prevented by treatment with PTG-670 at both 1 and 5 mg/kg in drinking water.

3×Tg mice [2] = experiment: Object Recognition test, 3×Tg mice; conditions: for short term episodic memory deficits in Object recognition test: 5 mg/kg
Procedure: as §1, §2

PSD95 = experiment: Western blot of hippocampus, 3×Tg mice: PSD95
Procedure: as §1
(§3) Mouse Hippocampus were processed for Western blotting analysis of Drebrin (actin binding protein in dendritic spines, role in neuronal growth, a decrease is a contributing factor in the pathogenesis of memory disturbance), PSD95 (a post-synaptic protein, role in the regulation of excitatory synapse maturity), and NeuN (neuronal nuclear antigen, biomarker for neurons, decrease=neuronal loss) (FIG. 12). The reduced drebrin levels in the hippocampus of 3×Tg mice was ameliorated by 20 weeks of treatment with PTG-670 at 5 mg/kg in drinking water only for female mice. Similarly, levels of PSD95 protein tend to decrease in 3×Tg mice and to be ameliorated by 5 mg/kg PTG670.

3×Tg mice [3] = experiment: Barnes maze learning abilities, 3×Tg mice
Procedure: as §1, §2
Learning abilities assessed using the Barnes maze were impaired in 3×Tg mice in both male and female around 6-7 months, conform with the literature (Stover et al., 2015).

3×Tg mice [4] = experiment: Barnes maze long-term memory, 3×Tg mice
Procedure: as §1, §2
Using the Barnes maze test, long-term memory was assessed between week 12 and 18 of treatment.

3×Tg mice [5] = experiment: Thermal response to heat stimuli, 3×Tg mice; conditions: 3×Tg mice did not develop significant hypoalgesia
Procedure: as §1, §2

Drebrin = experiment: Western blot of hippocampus, 3×Tg mice: Drebrin
Procedure: as §1, §3

4-hydroxynonal (4-HNE) = experiment: Lipid peroxidation, 4-HNE Oxiselect Elisa in hippocampus homogenates, 3×Tg mice; conditions: 5 mg/kg
Procedure: as §1
Lipid peroxidation was assessed using the 4-Hydroxynonal (4-HNE) Oxiselect Elisa in hippocampus homogenates.

NeuN = experiment: Western blot of hippocampus, 3×Tg mice: NeuN
Procedure: as §1, §3

[6] = Mortality and apparent toxicity, 20 weeks in 3×Tg mice; conditions: 1 and 5 mg/kg in drinking water
Procedure: as §1
• 1—Control (B6129SF2/J Jax 101045)), N=7 male, N=7 female, • 2—3×Tg, N=7 male, N=7 female, • 3—3×Tg+PTG-670 1 mg/kg drinking water, N=7 male, N=7 female, • 4—3×Tg+PTG-670 5 mg/kg drinking water, N=7 male, N=7 female.
No mice died during the course of the study.

3×Tg mice [7] = experiment: Tactile response (manual von Frey filaments), 3×Tg mice; conditions: 3×Tg mice did not develop tactile allodynia
Procedure: as §1, §2

Cc1ncc(CN2CCCCCC2)c(-c2ncc[nH]2)c1O [PTG-670, 5-(azepan-1-ylmethyl)-4-(1H-imidazol-2-yl)-2-methylpyridin-3-ol]
slowing of NCV (3×Tg mice [1]; 1 mg/kg in drinking water): prevented
slowing of NCV (3×Tg mice [1]; 5 mg/kg in drinking water): prevented
short term episodic memory deficits in Object recognition test (3×Tg mice [2]; after 6 weeks of treatment): significantly (p<0.05) ameliorated
short term episodic memory deficits in Object recognition test (3×Tg mice [2]; after 18 weeks of treatment): significantly (p<0.05) ameliorated
short-term episodic memory (recognition index) (3×Tg mice [2]; FIG. 10 legend, 6 to 18 weeks of treatment): alleviated
levels of PSD95 protein in hippocampus (PSD95; 5 mg/kg, tendency): ameliorated
PSD95 in hippocampus (PSD95; male 3×Tg mice): No differences were observed
learning abilities in Barnes maze (3×Tg mice [3]; female 3×Tg mice, 1 mg/kg for 18 weeks): significantly improved learning abilities to level similar to control
learning deficits in Barnes maze (3×Tg mice [3]; male 3×Tg mice): did not improve learning deficits
long-term memory impairment in Barnes maze (3×Tg mice [4]; female 3×Tg mice, 1 mg/kg, by week 18 of treatment): significantly (p<0.05) prevented
memory abilities in Barnes maze (3×Tg mice [4]; male 3×TG mice): No difference in memory abilities or effect
responses to heat stimuli (3×Tg mice [5]): did not affect the 3×Tg mice responses to heat stimuli
reduced drebrin levels in hippocampus (Drebrin; female mice only, 5 mg/kg in drinking water, 20 weeks): ameliorated
Drebrin in hippocampus (Drebrin; male 3×Tg mice): No differences were observed
4-HNE levels in hippocampus (4-hydroxynonal (4-HNE)): tend to reduce HNE levels
neuronal loss (NeuN) in hippocampus (NeuN; female mice only, 5 mg/kg): significantly (p<0.05) elevated
NeuN in hippocampus (NeuN; male 3×Tg mice): No differences were observed
apparent toxicity [6]: No apparent toxicity was observed
responses to von Frey filaments (3×Tg mice [7]): did not affect mice responses to von Frey filaments
